Each block holds one compound with its values, some of them ahead of it.
Legend:
[1] = biological target: T1, CYP2B6 (Homo sapiens, UniProt P20813); test: biochemical
[2] = biological target: T1, CYP2B6; conditions: both, 10 min, pH 7.4
[3] = cited from earlier work
[4] = tested on: HT29SN-38-RES cells; test: MDR reversal analysis with MTT assay, HT29SN-38-RES; assay type: cell-based, human; conditions: 72 hours, oxaliplatin is not a substrate for BCRP
Description: (§1) Control conditions consisted of full growth medium. All treatments were performed in triplicate.

[5] = tested on: MDCK-II-WT cells; test: MDR reversal analysis with MTT assay, MDCK-II-WT; assay type: cell-based, canine; conditions: Canis lupus familiaris, 72 h drug exposure, read-out: IC50 Value for Each Cell Line: MDCK-II-WT
[6] = biological target: CYP2C8 (Homo sapiens, UniProt P10632); conditions: both, 10 min, pH 7.4
[7] = biological target: CYP2C19 (Homo sapiens, UniProt P33261); test: CYP inhibition, CYP2C19; conditions: HLM, omeprazole substrate
[8] = biological target: T2, BCRP (Homo sapiens, UniProt Q9UNQ0); test: Cellular dye efflux assay (Hoechst 33342) in HT29SN-38-RES cells; assay type: cell-based; set-up: endogenous in cells; host or cells: HT29 SN-38-RES (drug-selected HT29); conditions: fluorescence microscopy and imaging cytometry
T2 sequence (Q9UNQ0 1-655): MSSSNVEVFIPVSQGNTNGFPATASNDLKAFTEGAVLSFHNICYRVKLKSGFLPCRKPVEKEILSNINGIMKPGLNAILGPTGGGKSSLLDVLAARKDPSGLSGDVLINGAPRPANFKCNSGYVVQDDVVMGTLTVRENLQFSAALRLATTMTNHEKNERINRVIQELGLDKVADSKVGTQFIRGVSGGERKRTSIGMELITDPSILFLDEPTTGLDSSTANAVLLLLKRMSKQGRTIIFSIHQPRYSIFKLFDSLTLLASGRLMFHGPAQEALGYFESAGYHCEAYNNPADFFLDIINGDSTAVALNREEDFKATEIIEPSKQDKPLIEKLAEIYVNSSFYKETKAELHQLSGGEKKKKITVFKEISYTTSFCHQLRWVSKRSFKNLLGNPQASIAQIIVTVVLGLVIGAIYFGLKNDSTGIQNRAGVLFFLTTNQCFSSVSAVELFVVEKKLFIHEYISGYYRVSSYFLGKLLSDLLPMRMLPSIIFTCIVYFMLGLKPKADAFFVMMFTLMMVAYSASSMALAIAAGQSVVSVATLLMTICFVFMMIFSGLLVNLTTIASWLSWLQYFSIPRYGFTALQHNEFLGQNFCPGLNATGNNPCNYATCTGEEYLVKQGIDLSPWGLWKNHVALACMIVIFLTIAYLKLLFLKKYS

[9] = biological target: T3, OAT3 (Homo sapiens, UniProt Q8TCC7); test: Fluorometric transporter inhibition, OAT3-CHO; assay type: in vitro ADME; conditions: CF substrate
T3 construct: expressed in transfected cells; host or cells: CHO
Description: (§2) Cells were seeded in a 96-well plate (20,000 cells/well) and used on days 2 or 3 post-seeding. […] Subsequently, substrate was added to the plate followed by 20 min incubation at 37 °C. The plate was then washed with cold assay buffer followed by fluorescence reading on a plate reader. The tested transporters, cell lines, substrates, and reference inhibitors are shown in the Supplementary Materials (Tables S1 and S2).
(§3) 110 Table S1. […]
OAT3 (h) inhibition (OAT3-CHO, CF substrate) […]
(§4) The IC50 values are shown for the analysed transporters with […]

[10] = biological target: CYP2D6 (Homo sapiens, UniProt P10635); conditions: both, pH 7.4
[11] = biological target: T4, OATP1B1 (Homo sapiens, UniProt Q9Y6L6); test: Fluorometric transporter inhibition, OATP1B1-CHO; assay type: in vitro ADME; conditions: FMTX substrate
T4 construct: expressed in transfected cells; host or cells: CHO
Description: as §2
110 Table S1. In vitro DMPK analysis of transporter inhibition
OATP1B1 OATP1B1-CHO Fluorescein methotrexate Rifampicin […]
OATP1B1 (h) inhibition (OATP1B1-CHO, FMTX substrate) […]
as §4

[12] = biological target: T5, OATP1B3 (Homo sapiens, UniProt Q9NPD5); test: Fluorometric transporter inhibition, OATP1B3-CHO; assay type: in vitro ADME; conditions: FMTX substrate
T5 construct: expressed in transfected cells; host or cells: CHO
Description: as §2, §3
OATP1B3 OATP1B3-CHO Fluorescein methotrexate Rifampicin […]
OATP1B3 (h) inhibition (OATP1B3 -CHO, FMTX substrate) […]
as §4

[13] = tested on: HT29PAR cells; test: MDR reversal analysis with MTT assay, HT29PAR; assay type: cell-based; conditions: Homo sapiens, 72 h drug exposure, read-out: IC50 Value for Each Cell Line: HT29PAR
Description: as §1

[14] = biological target: T2, BCRP; test: […] ATPase assay with recombinant BCRP membranes; assay type: biochemical; set-up: purchased Solvo Biotechnology (via Sigma-Aldrich/Merck) SB-BCRP-M; conditions: sulfasalazine alone; basal activity 50.68
Description: After incubation with test compounds, MgATP was added to each well and incubated at 37 °C for 10 min. The ATPase reaction was stopped by the addition of 1x Developer solution at room temperature (RT). Two minutes after, 100 µL Blocker solution was added and the plate was incubated for 30 min at 37 °C for 30 min. The optical densities were measured at 620 nm using a PowerWave X Microplate spectrophotometer (BioTek, Bad Friedrichshall, Germany).

[15] = tested on: Caco-2 cell monolayers
[16] = Apparent permeability across Caco-2 cell monolayers; conditions: human, Caco-2, pH 7.4

T4 sequence (Q9Y6L6 whole entry): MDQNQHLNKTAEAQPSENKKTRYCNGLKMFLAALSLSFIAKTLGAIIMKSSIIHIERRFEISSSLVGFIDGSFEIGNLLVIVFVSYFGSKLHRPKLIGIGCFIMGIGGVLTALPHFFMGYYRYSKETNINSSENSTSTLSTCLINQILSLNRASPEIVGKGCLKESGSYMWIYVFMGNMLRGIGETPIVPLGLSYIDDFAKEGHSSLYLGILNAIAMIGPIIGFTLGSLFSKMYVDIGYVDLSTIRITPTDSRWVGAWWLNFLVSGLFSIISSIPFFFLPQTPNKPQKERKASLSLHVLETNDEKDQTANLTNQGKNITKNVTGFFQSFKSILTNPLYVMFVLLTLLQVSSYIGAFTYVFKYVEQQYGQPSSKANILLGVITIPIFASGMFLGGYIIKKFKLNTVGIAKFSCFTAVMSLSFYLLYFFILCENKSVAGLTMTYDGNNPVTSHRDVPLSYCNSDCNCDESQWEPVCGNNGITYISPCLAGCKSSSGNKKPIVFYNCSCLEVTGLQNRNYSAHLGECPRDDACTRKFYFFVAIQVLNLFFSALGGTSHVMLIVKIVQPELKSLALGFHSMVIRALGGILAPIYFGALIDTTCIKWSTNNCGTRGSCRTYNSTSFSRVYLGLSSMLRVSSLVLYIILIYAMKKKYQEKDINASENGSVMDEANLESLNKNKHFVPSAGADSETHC
T5 sequence (Q9NPD5 whole entry): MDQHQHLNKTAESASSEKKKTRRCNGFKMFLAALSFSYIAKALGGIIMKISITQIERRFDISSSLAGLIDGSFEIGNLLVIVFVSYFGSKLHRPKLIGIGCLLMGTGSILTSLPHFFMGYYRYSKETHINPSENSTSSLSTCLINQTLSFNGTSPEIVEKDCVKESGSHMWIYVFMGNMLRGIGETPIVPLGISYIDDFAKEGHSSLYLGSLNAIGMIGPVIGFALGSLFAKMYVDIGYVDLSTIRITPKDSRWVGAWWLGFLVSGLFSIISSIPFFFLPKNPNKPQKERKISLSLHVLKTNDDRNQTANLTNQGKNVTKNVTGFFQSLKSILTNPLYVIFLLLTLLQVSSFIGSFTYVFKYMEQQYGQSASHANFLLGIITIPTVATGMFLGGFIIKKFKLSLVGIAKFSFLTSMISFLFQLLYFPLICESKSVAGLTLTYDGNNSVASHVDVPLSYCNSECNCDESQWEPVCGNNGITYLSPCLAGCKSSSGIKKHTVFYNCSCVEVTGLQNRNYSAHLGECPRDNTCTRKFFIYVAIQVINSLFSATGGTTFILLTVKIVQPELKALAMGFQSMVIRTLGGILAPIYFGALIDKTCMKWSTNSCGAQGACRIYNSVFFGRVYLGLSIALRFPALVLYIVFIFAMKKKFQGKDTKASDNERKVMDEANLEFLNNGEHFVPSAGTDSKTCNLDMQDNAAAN
T1 sequence (P20813 whole entry): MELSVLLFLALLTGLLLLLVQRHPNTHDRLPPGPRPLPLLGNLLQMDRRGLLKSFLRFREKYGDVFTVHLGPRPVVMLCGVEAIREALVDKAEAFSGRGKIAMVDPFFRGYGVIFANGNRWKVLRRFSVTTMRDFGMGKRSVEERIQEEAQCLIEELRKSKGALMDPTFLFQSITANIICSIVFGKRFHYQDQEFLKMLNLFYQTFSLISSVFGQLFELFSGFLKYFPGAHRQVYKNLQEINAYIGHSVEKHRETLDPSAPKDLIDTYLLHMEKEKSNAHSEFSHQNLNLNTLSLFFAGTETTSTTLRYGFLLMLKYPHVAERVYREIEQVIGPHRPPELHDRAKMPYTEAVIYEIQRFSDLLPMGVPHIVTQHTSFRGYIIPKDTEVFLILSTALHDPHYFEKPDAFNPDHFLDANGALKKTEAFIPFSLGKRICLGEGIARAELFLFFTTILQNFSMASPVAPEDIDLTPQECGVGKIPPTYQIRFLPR
CYP2C8, sequence (P10632 whole entry): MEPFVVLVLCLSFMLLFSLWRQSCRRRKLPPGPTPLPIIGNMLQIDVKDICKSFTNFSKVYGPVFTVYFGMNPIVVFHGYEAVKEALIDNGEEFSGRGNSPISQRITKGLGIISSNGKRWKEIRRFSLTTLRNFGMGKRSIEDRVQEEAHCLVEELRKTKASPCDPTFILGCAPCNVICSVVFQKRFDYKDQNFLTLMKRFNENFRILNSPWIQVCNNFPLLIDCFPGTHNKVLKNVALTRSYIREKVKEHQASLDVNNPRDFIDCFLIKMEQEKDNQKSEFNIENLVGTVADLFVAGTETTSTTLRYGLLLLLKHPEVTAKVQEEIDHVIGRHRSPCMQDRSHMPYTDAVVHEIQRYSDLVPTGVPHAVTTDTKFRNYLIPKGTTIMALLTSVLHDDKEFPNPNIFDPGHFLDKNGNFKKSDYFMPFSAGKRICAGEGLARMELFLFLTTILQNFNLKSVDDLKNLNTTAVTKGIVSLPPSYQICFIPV
CYP2D6, sequence (P10635 whole entry): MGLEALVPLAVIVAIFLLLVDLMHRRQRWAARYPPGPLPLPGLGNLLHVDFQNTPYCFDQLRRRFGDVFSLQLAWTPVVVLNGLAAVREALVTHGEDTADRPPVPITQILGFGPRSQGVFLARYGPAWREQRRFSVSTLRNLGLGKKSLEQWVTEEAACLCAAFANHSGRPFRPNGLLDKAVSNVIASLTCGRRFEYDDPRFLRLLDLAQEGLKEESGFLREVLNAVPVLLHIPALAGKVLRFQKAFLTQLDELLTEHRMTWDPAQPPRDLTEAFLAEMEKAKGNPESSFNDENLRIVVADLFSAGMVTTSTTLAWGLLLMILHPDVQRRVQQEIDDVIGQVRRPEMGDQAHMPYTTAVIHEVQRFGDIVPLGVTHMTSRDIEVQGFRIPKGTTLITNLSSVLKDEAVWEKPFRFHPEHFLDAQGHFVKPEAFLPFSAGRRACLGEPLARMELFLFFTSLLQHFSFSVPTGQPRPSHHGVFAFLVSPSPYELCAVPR
CYP2C19, sequence (P33261 whole entry): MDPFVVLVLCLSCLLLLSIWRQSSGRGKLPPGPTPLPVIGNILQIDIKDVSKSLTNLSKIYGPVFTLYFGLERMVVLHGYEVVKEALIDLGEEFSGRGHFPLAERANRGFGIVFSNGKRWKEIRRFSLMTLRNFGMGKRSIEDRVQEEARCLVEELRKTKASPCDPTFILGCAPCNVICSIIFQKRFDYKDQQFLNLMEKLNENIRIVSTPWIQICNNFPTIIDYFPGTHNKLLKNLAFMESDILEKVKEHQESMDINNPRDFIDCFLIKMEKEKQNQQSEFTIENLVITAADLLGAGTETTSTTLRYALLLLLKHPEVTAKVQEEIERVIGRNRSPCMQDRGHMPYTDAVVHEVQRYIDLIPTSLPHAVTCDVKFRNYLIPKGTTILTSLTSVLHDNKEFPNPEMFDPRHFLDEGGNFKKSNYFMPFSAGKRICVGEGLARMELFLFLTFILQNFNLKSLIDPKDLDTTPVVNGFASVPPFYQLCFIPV
T3 sequence (Q8TCC7 whole entry): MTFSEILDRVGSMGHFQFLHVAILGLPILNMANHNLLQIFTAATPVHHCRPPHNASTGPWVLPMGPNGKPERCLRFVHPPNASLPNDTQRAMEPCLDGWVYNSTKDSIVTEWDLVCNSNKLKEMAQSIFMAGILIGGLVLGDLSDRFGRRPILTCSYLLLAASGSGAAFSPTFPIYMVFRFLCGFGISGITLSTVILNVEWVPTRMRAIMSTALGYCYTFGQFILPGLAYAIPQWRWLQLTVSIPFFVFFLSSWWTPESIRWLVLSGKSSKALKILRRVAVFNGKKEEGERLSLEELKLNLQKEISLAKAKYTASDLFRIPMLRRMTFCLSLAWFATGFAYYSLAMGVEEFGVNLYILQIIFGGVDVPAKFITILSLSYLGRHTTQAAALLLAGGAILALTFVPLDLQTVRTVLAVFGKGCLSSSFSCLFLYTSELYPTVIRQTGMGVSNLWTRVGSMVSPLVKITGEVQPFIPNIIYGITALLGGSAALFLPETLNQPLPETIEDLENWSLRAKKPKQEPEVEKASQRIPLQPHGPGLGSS

IC50 [1]: 740 nM | nH [2]: 1.3
SMILES: COC(=O)[C@H](c1ccccc1Cl)N1CCc2sccc2C1 [Clopidogrel]

SMILES: COc1ccc2c3c([nH]c2c1)[C@H](CC(C)C)N1C(=O)[C@H](CCC(=O)OC(C)(C)C)NC(=O)[C@@H]1C3 [Ko143, reference compound]
stability in plasma [3]: not stable in plasma | combinatorial effect with oxaliplatin on cell viability [4]: no added effects

SMILES: O=C1c2c(O)ccc(O)c2C(=O)c2c(NCCNCCO)ccc(NCCNCCO)c21 [Mitoxantrone]
IC50 [5]: 157 ± 23 nM

SMILES: CC(C)(O)c1ccccc1CC[C@@H](SCC1(CC(=O)O)CC1)c1cccc(/C=C/c2ccc3ccc(Cl)cc3n2)c1 [Montelukast]
nH [6]: 0.8

nH [7]: 1.0
SMILES: CCN(CC)CC#CCOC(=O)C(O)(c1ccccc1)C1CCCCC1 (stereo not drawn) [Oxybutynin]

Hoechst accumulation in resistant cells [8]: did not have any effects
SMILES: C/C=C/C[C@@H](C)C(=O)[C@H]1C(=O)N[C@@H](C(C)C)C(=O)N(C)CC(=O)N(C)[C@@H](CC(C)C)C(=O)N[C@@H](C(C)C)C(=O)N(C)[C@@H](CC(C)C)C(=O)N[C@@H](C)C(=O)N[C@H](C)C(=O)N(C)[C@@H](CC(C)C)C(=O)N(C)[C@@H](CC(C)C)C(=O)N(C)[C@@H](C(C)C)C(=O)N1C [PSC833, reference compound]

nH [9]: 0.6
SMILES: CCCN(CCC)S(=O)(=O)c1ccc(C(=O)O)cc1 [Probenecid]

SMILES: C=C[C@H]1C[N@@]2CC[C@H]1C[C@@H]2[C@@H](O)c1ccnc2ccc(OC)cc12 [Quinidine]
nH [10]: 1.1

SMILES: CO[C@H]1/C=C/O[C@@]2(C)Oc3c(C)c(O)c4c(O)c(c(/C=N/N5CCN(C)CC5)c(O)c4c3C2=O)NC(=O)/C(C)=C\C=C\[C@H](C)[C@H](O)[C@@H](C)[C@@H](O)[C@@H](C)[C@H](OC(C)=O)[C@@H]1C [Rifampicin]
nH [11]: 0.6 | IC50 ([11]; NC: not calculable): 2200 nM | nH [12]: 0.4 | IC50 ([12]; NC: not calculable): 5.4 µM

IC50 [13]: 16 ± 10 nM
SMILES: CCc1c2c(nc3ccc(O)cc13)-c1cc3c(c(=O)n1C2)COC(=O)[C@]3(O)CC [SN-38, 7-Ethyl-10-hydroxycamptothecin]

maximal ATPase activity [14]: 104.8 nmol Pi/mg protein/min
SMILES: O=C(O)c1cc(/N=N/c2ccc(S(=O)(=O)Nc3ccccn3)cc2)ccc1O [Sulfasalazine, reference compound]

IC50 [13]: 8 ± 3 nM
SMILES: CC[C@@]1(O)C(=O)OCc2c1cc1n(c2=O)Cc2cc3c(CN(C)C)c(O)ccc3nc2-1 [Topotecan]

apparent permeability in the efflux direction (basolateral to apical) [15]: 2.7 ± 0.2 × 10^−5 cm/second | apparent permeability in the opposite direction (apical to basolateral) [15]: 2.2 ± 0.01 × 10^−6 cm/second | efflux ratio (PB-A/PA-B) [15]: 12.2
SMILES: C[C@]12CC[C@@H]3c4ccc(OS(=O)(=O)O)cc4CC[C@H]3[C@@H]1CCC2=O [[^3H]-estrone-3-sulfate]

Papp at 120 min, 0.8 µCi/mL [16]: 0.21 ×10⁻⁶ cm/s
SMILES: OC[C@@H](O)[C@@H](O)[C@H](O)[C@H](O)CO [mannitol]

Reference: paper PMC7140522, “The Pyrazolo[3,4-d]pyrimidine Derivative, SCO-201, Reverses Multidrug Resistance Mediated by ABCG2/BCRP” (Cells, 2020)
